Laboratory results: patent US9475798B2, “Azetidine estrogen receptor modulators and uses thereof” (Genentech, Inc., priority 2013, dated 2016)

How the values were obtained:
MCF-7 cells = experiment: Breast Cancer Cell Viability Assay (MCF7, CellTiter-Glo); conditions: for MCF7 Viability Assay: % Viability relative to Fulvestrant: 5 days, 100-{100*[(100-% viability of Example)/(100-% viability of Fulvestrant)]}; for IC50: read-out: MCF7 Viability Assay IC50, 5 days' compound exposure;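 on all read-outs here: CellTiter-Glo luminescence read-out, background from cell-free medium subtracted, viability expressed against untreated cells, ten-point 1:5 compound dilution series spanning 10 to 0.000005 µM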
[1] = tested on: tamoxifen resistant MCF-7 tumors; experiment: Breast Cancer Model; Xenograft Assay (MCF-7 Derivative); assay type: in vivo; conditions: female nu/nu mice
Description: Female nu/nu mice (with supplemental 17-β Estradiol pellets; 0.72 mg; 60 day slow release) bearing MCF-7 tumors (mean tumor volume 200 mm^3) were treated with Tamoxifen (citrate) by oral gavage. Tumor volume (length×width^2/2) and body weight were monitored twice weekly. Following a significant anti-tumor response in which tumor volume remained static, evident tumor growth was first observed at approximately 100 days of treatment. At 120 days of treatment, tamoxifen dose was increased. Rapidly growing tumors were deemed tamoxifen resistant and selected for in vivo passage into new host animals. Tumor Fragments (˜100 mm^3/animal) from the tamoxifen resistant tumors were subcutaneously implanted into the right flank of female nu/nu mice (with 17-β Estradiol pellets (0.72 mg; 60 day slow release)). Passaged tumors were maintained under constant Tamoxifen selection, and Tumor volume (length×width^2/2) was monitored weekly. When tumor volume reached ˜150-250 mm^3, animals were randomized into treatment groups (mean tumor volume 200 mm^3) and tamoxifen treatment was terminated (except for a tamoxifen control arm). Animals were treated with Vehicle or Compound daily for 4 weeks. Tumor volume and body weight were monitored twice weekly for the duration of the study. At the conclusion of the treatment period; plasma and tumor samples were taken for pharmacokinetic and pharmacodynamic analyses, respectively.

ER-α = target: T1, ER-α (Homo sapiens, UniProt P03372); experiment: Breast Cancer Cell ER-α In-Cell Western Assay (SP1); assay type: cell-based; conditions: MCF7 cells, 4 hours; 100-{100*[(100-% ER level of Example)/(100-% ER level of Fulvestrant)]}
T1 construct: endogenous in cells; host or cells: MCF7
T1 sequence (P03372 1-595): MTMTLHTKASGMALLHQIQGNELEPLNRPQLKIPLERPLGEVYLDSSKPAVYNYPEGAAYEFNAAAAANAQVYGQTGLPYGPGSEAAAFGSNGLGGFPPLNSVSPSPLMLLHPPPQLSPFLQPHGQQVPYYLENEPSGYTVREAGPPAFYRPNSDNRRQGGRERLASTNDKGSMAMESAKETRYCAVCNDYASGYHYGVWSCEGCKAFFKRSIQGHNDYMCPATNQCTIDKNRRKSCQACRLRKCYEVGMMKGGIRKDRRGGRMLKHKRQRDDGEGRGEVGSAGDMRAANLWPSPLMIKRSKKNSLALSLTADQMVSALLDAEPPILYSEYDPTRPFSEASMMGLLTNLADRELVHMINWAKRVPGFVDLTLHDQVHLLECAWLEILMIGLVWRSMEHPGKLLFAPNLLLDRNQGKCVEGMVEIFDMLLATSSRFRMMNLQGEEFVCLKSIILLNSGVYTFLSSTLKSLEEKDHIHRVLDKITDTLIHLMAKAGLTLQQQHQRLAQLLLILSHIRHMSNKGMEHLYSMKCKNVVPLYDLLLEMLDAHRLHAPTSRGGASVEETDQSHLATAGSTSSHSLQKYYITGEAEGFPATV
Description: MCF7 cells were trypsinized and washed twice in Phenol Red Free RPMI containing 5% Charcoal Dextran Stripped serum with 20 mM HEPES and NEAA, then adjusted to a concentration of 200,000 cells per mL with the same medium. […] At 4 hours post compound addition, the cells were fixed by adding 16 μL of 30% formalin to the 32 μL of cells and compound (10% formalin final concentration) for 20 minutes. Cells were then washed twice with PBS Tween 0.1% and then permeabilized in PBS 0.1% Triton (50 μl/well) for additional 15 minutes. The PBS 0.1% triton was decanted, and the cells were washed: LI-COR blocking buffer (50 μL/well) was added, the plate was spun at 3000 rpm, and then the blocking buffer was decanted. Additional LI-COR blocking buffer (50 μL/well) was added, and the cells were incubated overnight at 4° C. The blocking buffer was decanted, and the cells were incubated overnight at 4° C. with SP1 (Thermo Scientific) anti-ER rabbit monoclonal antibody diluted 1:1000 in LI-COR blocking buffer/0.1% Tween-20. Wells which were treated with blocking buffer with Tween but no antibody were used as a background control. Wells were washed twice with PBS Tween 0.1% to remove free SP1 antibodies, and the cells were incubated at room temp for 60-90 minutes in LI-COR goat anti-rabbit IRDye™ 800 CW (1:1000) and DRAQ5 DNA dye (1:10000 of 5 mM stock solution) diluted in LI-COR blocking buffer containing 0.1% Tween-20 and 0.01% SDS. Cells were then washed with 0.1% Tween-20/PBS three times. Plates were scanned on a LI-COR Odyssey infrared imaging system. Integrated intensities in the 800 nm channel and 700 nm channel were measured to determine levels of ER-α and DNA respectively. Percent ER levels were determined as follows: (Integrated intensity 800 nm sample/integrated intensity 700 nm sample)/(Integrated intensity 800 nm untreated cells/integrated intensity 700 nm untreated cells)×100=% ER-α levels.

CC1=C(c2ccc(F)cc2)[C@H](c2ccc(OCCN3CC(CF)C3)cc2)Oc2ccc(O)cc21 (single isomer, unassigned) [Example 3]
MCF7 Viability Assay: % Viability relative to Fulvestrant (MCF-7 cells): 8%
IC50 (MCF-7 cells): 0.17 nM
Number of Tumors Smaller at t = 27 days than at Start of study (t = 0 days) ([1]; 10mpk oral dose each day): 2/8
Number of Tumors Smaller at t = 27 days than at Start of study (t = 0 days) ([1]; 30mpk oral dose each day): 3/8
Number of Tumors Smaller at t = 27 days than at Start of study (t = 0 days) ([1]; 100mpk oral dose each day): 5/8

CC1=C(c2cccc(O)c2)[C@H](c2ccc(OC[C@H](C)N3CC[C@@H](C)C3)cc2)Oc2ccc(O)cc21 [(S)-3-(3-Hydroxyphenyl)-4-methyl-2-(4-((S)-2-((R)-3-methylpyrrolidin-1-yl)propoxy)phenyl)-2H-chromen-6-ol, reference compound]
MCF7 Viability Assay: % Viability relative to Fulvestrant (MCF-7 cells): 8%
IC50 (MCF-7 cells): 0.13 nM
Number of Tumors Smaller at t = 27 days than at Start of study (t = 0 days) ([1]; 10mpk oral dose each day): 0/8
Number of Tumors Smaller at t = 27 days than at Start of study (t = 0 days) ([1]; 30mpk oral dose each day): 1/8
Number of Tumors Smaller at t = 27 days than at Start of study (t = 0 days) ([1]; 100mpk oral dose each day): 1/8

CC1=C(c2ccc(F)c(F)c2)C(c2ccc(OCCN3CC(CF)C3)cc2)Oc2ccc(O)cc21 (stereo not shown) [Example 10, 3-(3,4-Difluorophenyl)-2-(4-(2-(3-(fluoromethyl)azetidin-1-yl)ethoxy)phenyl)-4-methyl-2H-chromen-6-ol]
ER-α In-Cell Western Assay (SP1): % ER-α remaining relative to Fulvestrant (ER-α): 1%
MCF7 Viability Assay: % Viability relative to Fulvestrant (MCF-7 cells): 2%
IC50 (MCF-7 cells): 0.41 nM

CC1=C(c2ccc(F)c(Cl)c2)C(c2ccc(OCCN3CC(CF)C3)cc2)Oc2ccc(O)cc21 (stereo not shown) [Example 13, 3-(3-Chloro-4-fluorophenyl)-2-(4-(2-(3-(fluoromethyl)azetidin-1-yl)ethoxy)phenyl)-4-methyl-2H-chromen-6-ol]
ER-α In-Cell Western Assay (SP1): % ER-α remaining relative to Fulvestrant (ER-α): 2%
MCF7 Viability Assay: % Viability relative to Fulvestrant (MCF-7 cells): 1%
IC50 (MCF-7 cells): 0.53 nM

CC1=C(c2ccc(Cl)c(F)c2)C(c2ccc(OCCN3CC(CF)C3)cc2)Oc2ccc(O)cc21 (stereo not shown) [Example 16, 3-(4-Chloro-3-fluorophenyl)-2-(4-(2-(3-(fluoromethyl)azetidin-1-yl)ethoxy)phenyl)-4-methyl-2H-chromen-6-ol]
ER-α In-Cell Western Assay (SP1): % ER-α remaining relative to Fulvestrant (ER-α): 1%
MCF7 Viability Assay: % Viability relative to Fulvestrant (MCF-7 cells): 1%
IC50 (MCF-7 cells): 0.71 nM

CC1=C(c2cc(F)c(F)c(F)c2)C(c2ccc(OCCN3CC(CF)C3)cc2)Oc2ccc(O)cc21 (stereo not shown) [Example 19, 2-(4-(2-(3-(Fluoromethyl)azetidin-1-yl)ethoxy)phenyl)-4-methyl-3-(3,4,5-trifluorophenyl)-2H-chromen-6-ol]
ER-α In-Cell Western Assay (SP1): % ER-α remaining relative to Fulvestrant (ER-α): 0%
MCF7 Viability Assay: % Viability relative to Fulvestrant (MCF-7 cells): 0%
IC50 (MCF-7 cells): 0.42 nM

CC1=C(c2ccc(C(F)(F)F)cc2)C(c2ccc(OCCN3CC(CF)C3)cc2)Oc2ccc(O)cc21 (stereo not shown) [Example 22, 2-(4-(2-(3-(Fluoromethyl)azetidin-1-yl)ethoxy)phenyl)-4-methyl-3-(4-(trifluoromethyl)phenyl)-2H-chromen-6-ol]
ER-α In-Cell Western Assay (SP1): % ER-α remaining relative to Fulvestrant (ER-α): 8%
MCF7 Viability Assay: % Viability relative to Fulvestrant (MCF-7 cells): 6%
IC50 (MCF-7 cells): 12 nM

CC1=C(c2ccc(F)cc2)C(c2ccc(OCCN3CC(CF)C3)cc2)Oc2cc(O)ccc21 (stereo not shown) [Example 25, 2-(4-(2-(3-(Fluoromethyl)azetidin-1-yl)ethoxy)phenyl)-3-(4-fluorophenyl)-4-methyl-2H-chromen-7-ol]
ER-α In-Cell Western Assay (SP1): % ER-α remaining relative to Fulvestrant (ER-α): 2%
MCF7 Viability Assay: % Viability relative to Fulvestrant (MCF-7 cells): 7%
IC50 (MCF-7 cells): 0.3 nM

CC1=C(c2ccc(Cl)cc2)C(c2ccc(OCCN3CC(CF)C3)cc2)Oc2cc(O)ccc21 (stereo not shown) [Example 28, 3-(4-Chlorophenyl)-2-(4-(2-(3-(fluoromethyl)azetidin-1-yl)ethoxy)phenyl)-4-methyl-2H-chromen-7-ol]
ER-α In-Cell Western Assay (SP1): % ER-α remaining relative to Fulvestrant (ER-α): 3%
MCF7 Viability Assay: % Viability relative to Fulvestrant (MCF-7 cells): 6%
IC50 (MCF-7 cells): 0.8 nM

CC1=C(c2cccc(O)c2)C(c2ccc(OCCN3CC(C)C3)cc2)Oc2ccc(O)cc21 (stereo not shown) [Example 31, 3-(3-Hydroxyphenyl)-4-methyl-2-(4-(2-(3-methylazetidin-1-yl)ethoxy)phenyl)-2H-chromen-6-ol]
ER-α In-Cell Western Assay (SP1): % ER-α remaining relative to Fulvestrant (ER-α): 14%
MCF7 Viability Assay: % Viability relative to Fulvestrant (MCF-7 cells): 13%
IC50 (MCF-7 cells): 0.2 nM
